Experimental data: patent publication US6635641B2 (Agouron Pharmaceuticals, Inc., priority 2000, dated 2003)
Where two headings read alike, the source gives them in different places.

How the values were obtained:
[1] = system: lung cancer cells (line MV522); test: Cancer cell proliferation (MV522) assay (MTT); assay type: cell-based; conditions: MV522
How it was run: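 Proliferation was read by MTT reduction 72 h after compound addition, in a 4-day protocol with no starvation step. Two thousand MV522 cells were seeded in RPMI1640 with 10% FBS and 2 mM glutamine and given 1 day to attach before dosing.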

[2] = system: human umbilical vein endothelial cells (HUVEC); test: HUVEC proliferation assay (VEGF-stimulated, MTT); assay type: cell-based; conditions: Homo sapiens, HUVEC
How it was run: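 Proliferation measured by MTT reduction (4 h exposure, absorbance at 595) 72 hours after VEGF stimulation (final 6 ng/ml). Compound added to 24 h-starved HUVEC in F12K with 1% FBS and 0.1% final DMSO, one hour before the growth factor.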

[3] = target: T1, unphosphorylated VEGF-R2Δ50 (FLVK) (Homo sapiens, UniProt P35968, DEL940-989/E990V); test: VEGF-R2 coupled spectrophotometric assay, unphosphorylated construct (FLVK); assay type: biochemical;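 note: Baculovirus-expressed cytosolic kinase domain, ADP formation linked via pyruvate kinase and lactate dehydrogenase to NADH oxidation, read as falling absorbance at 340 nm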
T1 construct: VEGF-R2Δ50 contains residues 806-939 and 990-1171; made in house; host or cells: baculovirus/insect cells
T1 sequence (P35968 with tags, fused parts or gaps DEL940-989/E990V limits assumed): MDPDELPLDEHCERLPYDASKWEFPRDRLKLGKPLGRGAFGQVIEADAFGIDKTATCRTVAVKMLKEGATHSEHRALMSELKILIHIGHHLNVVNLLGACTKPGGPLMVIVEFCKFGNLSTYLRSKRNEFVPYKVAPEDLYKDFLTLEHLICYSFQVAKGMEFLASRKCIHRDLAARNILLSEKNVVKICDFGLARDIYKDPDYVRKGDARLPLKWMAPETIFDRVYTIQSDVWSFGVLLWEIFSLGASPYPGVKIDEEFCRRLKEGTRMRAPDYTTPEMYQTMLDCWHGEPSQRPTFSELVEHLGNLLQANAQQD

LCK tyrosine kinase = target: T2, LCK tyrosine kinase (Homo sapiens, UniProt P06239, C224D/P223M); test: LCK spectrophotometric assay; assay type: biochemical; conditions: for Ki: read-out: LCK-P Ki;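 for all read-outs here: recombinant LCK kinase activity on poly(E4Y1), ADP formation coupled through PK/LDH to NADH oxidation, followed as absorbance loss at 340 nm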
T2 construct: starting from amino acid residue 223 to the end of the protein at residue 509; made in house; host or cells: insect cells
T2 sequence (P06239 223-509 P223M/C224D): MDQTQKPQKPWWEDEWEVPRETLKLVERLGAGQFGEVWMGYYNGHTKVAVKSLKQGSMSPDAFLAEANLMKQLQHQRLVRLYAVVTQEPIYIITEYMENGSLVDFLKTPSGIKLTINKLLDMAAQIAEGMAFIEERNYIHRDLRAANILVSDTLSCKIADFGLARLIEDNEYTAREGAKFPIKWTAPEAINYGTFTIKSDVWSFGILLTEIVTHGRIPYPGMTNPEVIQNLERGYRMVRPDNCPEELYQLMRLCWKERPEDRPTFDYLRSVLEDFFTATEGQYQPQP

FL-CHK-1 = target: T3, FL-CHK-1 (Homo sapiens, UniProt O14757); test: CHK-1 coupled spectrophotometric assay (Syntide-2); assay type: biochemical; conditions: @ 1 μM; read-out: CHK-1 percent inhibition
T3 construct: C-terminally His-tagged full-length human CHK-1 (FL-CHK-1); made in house; host or cells: baculovirus/insect cells
T3 sequence (O14757 1-476): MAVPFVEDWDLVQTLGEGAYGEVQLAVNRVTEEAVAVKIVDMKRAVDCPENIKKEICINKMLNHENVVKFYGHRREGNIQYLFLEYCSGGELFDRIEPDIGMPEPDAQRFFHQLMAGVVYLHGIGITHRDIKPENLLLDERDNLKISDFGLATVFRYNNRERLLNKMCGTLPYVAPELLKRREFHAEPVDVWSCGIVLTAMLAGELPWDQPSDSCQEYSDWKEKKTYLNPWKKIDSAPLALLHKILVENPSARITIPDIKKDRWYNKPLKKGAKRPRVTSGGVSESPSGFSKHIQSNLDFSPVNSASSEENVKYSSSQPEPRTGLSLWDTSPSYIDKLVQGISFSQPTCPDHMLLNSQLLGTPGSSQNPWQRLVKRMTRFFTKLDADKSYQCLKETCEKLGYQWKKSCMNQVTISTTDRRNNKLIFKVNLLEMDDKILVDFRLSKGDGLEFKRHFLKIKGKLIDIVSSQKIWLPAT
Excerpt: C-terminally His-tagged full-length human CHK-1 (FL-CHK-1) was expressed using the baculovirus/insect cell system. It contains 6 histidine residues (6×His-tag) at the C-terminus of the 476 amino acid human CHK-1. The protein was purified by conventional chromatographic techniques.
The production of ADP from ATP that accompanies phosphoryl transfer to the synthetic substrate peptide Syntide-2 ([…]) was coupled to oxidation of NADH using phosphoenolpyruvate (PEP) through the actions of pyruvate kinase (PK) and lactic dehydrogenase (LDH). The oxidation of NADH was monitored by following the decrease of absorbance at 340 nm (ε340=6.22 cm−1 mM^−1) using a HP8452 spectrophotometer. Typical reaction solutions contained: […]; 0.15 mM NADH; 28 units of LDH/ml; 16 units of PK/ml; 3 mM DTT; 0.125 mM Syntide-2; 0.15 mM ATP; 25 mM MgCl2 in 50 mM TRIS, pH 7.5; and 400 mM NaCl. Assays were initiated with 10 nM of FL-CHK-1. Ki values were determined by measuring initial enzyme activity in the presence of varying concentrations of test compounds. The data were analyzed using Enzyme Kinetic and Kaleidagraph software.

[4] = with albumin, read-out: Huvec + Albumin IC50

IC50 [1] | Ki [3] | inhibition at 5 µM (LCK tyrosine kinase; @ 5 μM, read-out: LCK-P percent inhibition) | inhibition at 1 µM (FL-CHK-1) | Ki (LCK tyrosine kinase) | Structure (SMILES) | IC50 ([2]; read-out: HUVEC IC50) | IC50 [2, 4]
> 10000 nM | 1.4 nM | 85% | – | – | Cc1ccc2cc(NC(=O)c3cccc(SCc4cc(Nc5ccccc5)n[nH]4)c3)ccc2n1 [Example E-1, N-(2-methyl-quinolin-6-yl)-3-[{5-(phenylamino)-2-H-pyrazol-3-yl}methylsulfanyl]benzamide] | 170 nM | > 1000 nM
5600 nM | 0.11 nM | – | 7% | 2.5 nM | O=C(Nc1ccc(N2CCCC2)c(C(F)(F)F)c1)c1cccc(CCc2cc(Nc3cccnc3)n[nH]2)c1 [Example G-11] | 4.4 nM | 64 nM
4600 nM | 0.23 nM | – | 8% | 57.7 nM | Cc1cc(NC(=O)c2ccc(F)c(OCc3cncc4ccccc34)c2)ccc1C(C)C [Example K-10, N-(4-Isopropyl-3-methyl-phenyl)-4-fluoro-3-(Isoquinolin-4-yl)methoxy-benzamide] | 12 nM | –
> 10000 nM | 1.3 nM | – | 10% | 160 nM | CC(=O)Nc1ccc(COc2cccc(C(=O)Nc3ccc4nc(C)ccc4c3)c2)cn1 [Example N-1, 3-(6-Acetylaminopyridin-3-yl)methoxy-N-(2-methyl-quinolin-6-yl)-benzamide] | 38 nM | > 1000 nM
